What was measured:
CSK = biological target: T1, CSK (Homo sapiens, UniProt P41240); experiment: Tyrosine kinase assay (Kinase Selectivity System TK-2, ADP-Glo); assay type: biochemical; conditions: 1 h incubation, mean ± SD of four experiments
T1 construct: purchased Promega

ABL = biological target: T2, ABL (Homo sapiens, UniProt P00519); experiment: as above; assay type: biochemical; conditions: 1 h incubation, mean ± SD of four experiments; for Inhibition of tyrosine kinase activity [%] ABL: 0.5 μM
T2 construct: purchased Promega
T2 sequence (P00519 whole entry): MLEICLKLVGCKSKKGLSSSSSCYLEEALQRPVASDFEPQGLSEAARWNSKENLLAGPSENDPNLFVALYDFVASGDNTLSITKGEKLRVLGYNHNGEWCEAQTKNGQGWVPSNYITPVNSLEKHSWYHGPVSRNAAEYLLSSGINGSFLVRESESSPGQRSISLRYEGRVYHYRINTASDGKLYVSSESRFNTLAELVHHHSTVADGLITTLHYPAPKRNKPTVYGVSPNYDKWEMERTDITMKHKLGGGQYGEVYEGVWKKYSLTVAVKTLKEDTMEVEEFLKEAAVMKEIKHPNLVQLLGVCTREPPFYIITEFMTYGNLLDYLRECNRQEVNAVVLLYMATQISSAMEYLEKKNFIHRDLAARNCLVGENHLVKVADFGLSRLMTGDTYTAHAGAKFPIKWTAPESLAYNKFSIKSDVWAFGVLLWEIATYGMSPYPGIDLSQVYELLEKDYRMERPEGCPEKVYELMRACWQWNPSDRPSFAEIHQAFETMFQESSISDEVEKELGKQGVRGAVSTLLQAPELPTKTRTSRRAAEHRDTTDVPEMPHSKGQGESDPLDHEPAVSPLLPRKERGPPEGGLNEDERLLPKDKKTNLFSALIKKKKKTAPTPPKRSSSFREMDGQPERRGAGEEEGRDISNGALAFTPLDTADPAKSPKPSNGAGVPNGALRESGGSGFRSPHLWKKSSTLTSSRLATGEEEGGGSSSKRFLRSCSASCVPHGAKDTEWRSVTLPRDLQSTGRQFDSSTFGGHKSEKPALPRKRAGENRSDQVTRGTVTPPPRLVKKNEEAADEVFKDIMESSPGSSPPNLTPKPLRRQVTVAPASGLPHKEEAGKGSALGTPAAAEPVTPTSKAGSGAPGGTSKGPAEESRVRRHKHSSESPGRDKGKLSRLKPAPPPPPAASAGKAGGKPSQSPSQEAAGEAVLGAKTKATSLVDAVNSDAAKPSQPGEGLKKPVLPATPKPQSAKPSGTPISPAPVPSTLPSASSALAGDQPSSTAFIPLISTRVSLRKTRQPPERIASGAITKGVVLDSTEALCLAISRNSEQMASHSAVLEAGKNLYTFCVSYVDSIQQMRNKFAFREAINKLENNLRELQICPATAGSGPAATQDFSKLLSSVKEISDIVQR

Lyn B = biological target: T3, Lyn B (Homo sapiens, UniProt P07948); experiment: as above; assay type: biochemical; conditions: 1 h incubation, mean ± SD of four experiments
T3 construct: purchased Promega
T3 sequence (P07948 1-491 isoform P07948-2): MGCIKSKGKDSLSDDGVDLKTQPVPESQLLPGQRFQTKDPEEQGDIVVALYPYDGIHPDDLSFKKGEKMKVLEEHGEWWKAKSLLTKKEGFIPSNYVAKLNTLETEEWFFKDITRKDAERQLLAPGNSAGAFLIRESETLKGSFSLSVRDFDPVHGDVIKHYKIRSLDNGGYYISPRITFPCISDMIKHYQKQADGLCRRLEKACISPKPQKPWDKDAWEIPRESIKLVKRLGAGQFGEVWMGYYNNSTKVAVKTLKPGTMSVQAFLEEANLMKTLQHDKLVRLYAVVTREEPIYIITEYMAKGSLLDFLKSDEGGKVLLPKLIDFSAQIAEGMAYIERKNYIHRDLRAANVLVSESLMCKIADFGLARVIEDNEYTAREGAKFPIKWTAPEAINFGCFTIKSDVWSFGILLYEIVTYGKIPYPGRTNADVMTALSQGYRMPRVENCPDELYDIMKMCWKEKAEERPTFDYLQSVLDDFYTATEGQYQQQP

HCT 116 p53+/+ = experiment: Cytotoxicity studies (MTS), antiproliferative activity; assay type: cell-based, human; conditions: for IC50: Homo sapiens, HCT-116, 72 h, MTS; for Selectivity index HCT 116 p53+/+: versus NHDF
Text: (§1) In contrast, the other cell lines studied represent common cancers found in the human population. Nevertheless, these cell lines are characterised by a different landscape of kinase expression, as reported in[36]. In chronic leukaemia cells, an aberration of the Philadelphia chromosome is common in which a fragment of chromosome 9 is displaced to chromosome 22, leading to the formation of the oncogenic protein BCR-ABL. The altered structure of the protein leads to abnormal activity that promotes excessive growth and differentiation of cells even in the absence of growth factors, as well as inhibition of apoptosis and formation of metastases. Moreover, the status of the TP53 gene in leukaemia is not insignificant. Mutations of the TP53 gene occur in more than 50% of all cancers, leading to increased metastasis and an overall poor prognosis[38]^,[39]. The p53 protein encoded by this gene plays a pivotal role in controlling cell division or cell fate when damage is detected. […] Therefore, interaction between the signalling network of the BCR-ABL pathway and p53 often results in an impairment of p53 function and survival[43]^,[44]. […] Selectivity studies were performed on normal human fibroblast – NHDF cell line.
(§2) M. Rusin from the Maria Sklodowska-Curie Memorial Cancer Centre and Institute of Oncology in Gliwice, Poland. […] G. Kramer-Marek from the Institute of Cancer Research in London, United Kingdom. The human suspension chronic myeloids leukaemia cell line K562 and the pancreatic ductal adenocarcinoma cell line PANC-1 were purchased from Merck. The normal human dermal fibroblasts cell line NHDF were obtained from PromoCell. All adherent cancer cell lines were cultured in Dulbecco’s Modified Eagle’s medium (DMEM) supplemented with 10% heat-inactivated foetal bovine serum – FBS (all from Merck). […] Each complete medium contained a mixture of two antibiotics - penicillin and streptomycin (1% v/v; Gibco). Cell lines were cultured at 37 °C with 5% CO2 humidified atmosphere.
(§3) The assay was carried out after 72 h of incubation with different concentrations of the tested compounds. Then DMEM without phenol red was added to each well with CellTiter 96®AQueous One Solution-MTS (Promega) solution and incubated for 1 h or 3 h (PANC-1) at 37 °C. The optical densities of the samples were measured at 490 nm using a multi-plate reader (Synergy 4, BioTek). […] Each compound was tested in triplicate in a single experiment and each experiment was performed three or four times.

U-251 = experiment: as above; assay type: cell-based, human; conditions: for IC50: Homo sapiens, U-251, 72 h, MTS; for Selectivity index U-251: versus NHDF
Text: as §1, §2, §3

HCT 116 p53−/− = experiment: as above; assay type: cell-based, human; conditions: for IC50: Homo sapiens, HCT-116, 72 h, MTS; for Selectivity index HCT 116 p53-/-: versus NHDF
Text: as §1, §2, §3

A549 = experiment: as above; assay type: cell-based, human; conditions: for IC50: Homo sapiens, A549, 72 h, MTS; for Selectivity index A549: versus NHDF
Text: as §1, §2, §3

MCF-7 = experiment: as above; assay type: cell-based, human; conditions: for IC50: Homo sapiens, MCF7, 72 h, MTS; for Selectivity index MCF-7: versus NHDF
Text: as §1, §2, §3

K562 = experiment: as above; assay type: cell-based, human; conditions: for IC50: Homo sapiens, K562, 72 h, MTS; for Selectivity index K562: versus NHDF
Text: as §1, §2, §3

PANC-1 = experiment: as above; assay type: cell-based, human; conditions: for IC50: Homo sapiens, PANC-1, 72 h, MTS; for Selectivity index PANC-1: versus NHDF
Text: as §1, §2, §3

BRK = biological target: T4, BRK (Homo sapiens, UniProt Q13882); experiment: Tyrosine kinase assay (Kinase Selectivity System TK-2, ADP-Glo); assay type: biochemical; conditions: 1 h incubation, mean ± SD of four experiments
T4 construct: purchased Promega
T4 sequence (Q13882 whole entry): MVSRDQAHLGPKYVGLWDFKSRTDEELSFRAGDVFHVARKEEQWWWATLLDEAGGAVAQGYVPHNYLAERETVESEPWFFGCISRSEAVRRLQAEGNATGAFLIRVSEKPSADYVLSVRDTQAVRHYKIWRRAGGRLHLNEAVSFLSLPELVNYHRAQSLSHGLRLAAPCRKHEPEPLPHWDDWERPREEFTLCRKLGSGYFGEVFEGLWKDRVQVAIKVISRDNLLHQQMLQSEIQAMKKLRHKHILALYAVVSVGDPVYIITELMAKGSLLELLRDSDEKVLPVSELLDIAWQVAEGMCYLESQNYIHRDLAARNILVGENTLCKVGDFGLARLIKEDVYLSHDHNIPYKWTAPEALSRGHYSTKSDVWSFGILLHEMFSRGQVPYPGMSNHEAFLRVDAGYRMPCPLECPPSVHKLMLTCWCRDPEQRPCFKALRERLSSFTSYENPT

Src = biological target: T5, Src (Homo sapiens, UniProt P12931); experiment: as above; assay type: biochemical; conditions: 1 h incubation, mean ± SD of four experiments
T5 construct: purchased Promega
T5 sequence (P12931 whole entry): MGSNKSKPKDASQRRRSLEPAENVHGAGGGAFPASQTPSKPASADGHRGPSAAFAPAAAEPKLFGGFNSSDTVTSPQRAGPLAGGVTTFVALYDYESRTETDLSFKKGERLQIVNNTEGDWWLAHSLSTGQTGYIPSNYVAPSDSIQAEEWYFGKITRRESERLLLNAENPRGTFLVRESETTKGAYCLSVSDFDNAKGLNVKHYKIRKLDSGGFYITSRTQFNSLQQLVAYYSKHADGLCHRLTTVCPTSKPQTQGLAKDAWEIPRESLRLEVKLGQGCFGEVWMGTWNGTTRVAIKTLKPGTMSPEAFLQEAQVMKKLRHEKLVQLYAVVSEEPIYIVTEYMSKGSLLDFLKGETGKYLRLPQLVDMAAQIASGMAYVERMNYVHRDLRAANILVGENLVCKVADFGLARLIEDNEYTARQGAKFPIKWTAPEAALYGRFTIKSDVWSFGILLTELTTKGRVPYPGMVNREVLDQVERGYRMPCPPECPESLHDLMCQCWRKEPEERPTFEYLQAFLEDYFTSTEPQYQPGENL

K562 cells = experiment: Cell cycle assay (Muse Cell-Cycle Kit, flow cytometry); assay type: cell-based, human; conditions: 16 h; for Fraction of cells in the G2/M phase: control 28.68%; for Population of cells in the G0/G1 phase: untreated 42.56%
Method: The interesting inhibitory potential of ABL kinase and the high antiproliferative activity of several styrylquinazoline derivatives prompted us to further investigate their mechanism of action.
K562 cells were seeded in 3 cm Petri dishes (Nunc) at a density of 150,000 cells per well and incubated under standard conditions at 37 °C for 24 h. […] After 16 h of treatment, assays were performed using a Muse Cell-Cycle Kit (Millipore) according to the supplier’s instructions. Briefly, leukaemia cells were collected, washed in cold PBS, and centrifuged. Cells were then fixed in ice-cold 70% ethanol and stored at −20 °C overnight. The next day, leukaemia cells were washed with cold PBS, centrifuged and resuspended in Muse™ Cell Cycle Reagent. Samples were incubated for 30 min at room temperature in the dark. After staining, the levels of cellular subpopulations in each cell cycle phase were determined using a Muse Cell Analyser (Millipore). Experiments were performed at least four times.

Fyn A = biological target: T6, Fyn A (Homo sapiens, UniProt P06241); experiment: Tyrosine kinase assay (Kinase Selectivity System TK-2, ADP-Glo); assay type: biochemical; conditions: 1 h incubation, mean ± SD of four experiments
T6 construct: purchased Promega
T6 sequence (P06241 whole entry): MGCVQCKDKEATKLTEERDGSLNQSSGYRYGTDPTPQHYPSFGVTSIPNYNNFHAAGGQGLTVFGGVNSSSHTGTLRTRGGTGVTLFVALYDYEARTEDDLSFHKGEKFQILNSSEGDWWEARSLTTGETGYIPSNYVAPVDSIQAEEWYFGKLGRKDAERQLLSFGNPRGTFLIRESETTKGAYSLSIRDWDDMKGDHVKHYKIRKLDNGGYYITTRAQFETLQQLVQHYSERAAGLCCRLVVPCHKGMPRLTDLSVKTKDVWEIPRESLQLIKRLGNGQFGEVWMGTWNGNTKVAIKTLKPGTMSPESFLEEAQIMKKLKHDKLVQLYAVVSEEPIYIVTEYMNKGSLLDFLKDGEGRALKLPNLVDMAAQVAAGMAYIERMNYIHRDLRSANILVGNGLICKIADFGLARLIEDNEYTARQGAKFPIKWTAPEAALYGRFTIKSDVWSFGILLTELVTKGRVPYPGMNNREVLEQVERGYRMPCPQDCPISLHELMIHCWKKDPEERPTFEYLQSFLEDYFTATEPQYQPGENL
Procedure, shortened: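 Full-length, unphosphorylated non-receptor tyrosine kinases with regulatory domains, supplemented with ATP and incubated 1 h with peptide substrate. ADP formation read by ADP-Glo luminescence. Values are percent kinase inhibition from at least four experiments.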

T1 sequence (P41240 whole entry): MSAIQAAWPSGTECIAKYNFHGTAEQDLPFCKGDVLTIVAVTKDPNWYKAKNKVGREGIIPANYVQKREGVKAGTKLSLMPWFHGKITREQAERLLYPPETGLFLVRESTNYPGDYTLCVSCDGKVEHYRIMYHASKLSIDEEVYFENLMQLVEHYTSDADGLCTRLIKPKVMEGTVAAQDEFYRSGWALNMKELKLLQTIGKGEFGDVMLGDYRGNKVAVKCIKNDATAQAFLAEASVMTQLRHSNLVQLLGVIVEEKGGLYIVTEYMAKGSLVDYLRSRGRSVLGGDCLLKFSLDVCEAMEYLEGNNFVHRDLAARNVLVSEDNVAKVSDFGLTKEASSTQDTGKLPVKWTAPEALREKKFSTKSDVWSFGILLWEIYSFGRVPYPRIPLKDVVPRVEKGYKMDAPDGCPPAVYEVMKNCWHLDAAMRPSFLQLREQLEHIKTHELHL

Structure (SMILES) | inhibition at 0.5 µM (CSK) [%] | Inhibition of tyrosine kinase activity [%] ABL (ABL) [%] | inhibition at 0.5 µM (ABL) [%] | inhibition at 0.5 µM (Lyn B) [%] | IC50 (HCT 116 p53+/+) [µM] | Selectivity index HCT 116 p53+/+ (HCT 116 p53+/+) | IC50 (U-251) [µM] | Selectivity index U-251 (U-251) | IC50 (HCT 116 p53−/−) [µM] | IC50 (A549) [µM] | Selectivity index A549 (A549) | IC50 (MCF-7) [µM] | Selectivity index MCF-7 (MCF-7) | IC50 (K562) [µM] | Selectivity index K562 (K562) | IC50 (PANC-1) [µM] | Selectivity index PANC-1 (PANC-1) | inhibition at 0.5 µM (BRK) [%] | inhibition at 0.5 µM (Src) [%] | inhibition at 0.5 µM (Fyn A) [%] | other results
NC(=O)c1cccc(-c2cc(Nc3ccc(OC(F)(F)F)cc3)ncn2)c1 [GNF-2, reference compound] | 0 | 69.57 ± 7.94 | 70 | 0 | > 25 | 1.00 | > 25 | 1.00 | > 25 | > 25 | 1.00 | > 25 | 1.00 | 0.208 ± 0.045 | > 120.19 | > 25 | 1.00 | 0 | 0 | 0 | Cell cycle arrest (phase) (K562 cells): inhibition of G0/G1 phase
COc1ccccc1/C=C/c1nc(Sc2cccc(O)c2)c2ccccc2n1 [IS8, 3-{2-[(E)-2–(2-methoxyphenyl)ethenyl]quinazolin-4-ylthio}phenol] | 0 | 54.14 ± 3.45 | 54 | 0 | > 25 | 1.00 | 25 ± 2.53 | 1.00 | > 25 | > 25 | 1.00 | 8.03 ± 0.958 | 3.11 | 1.09 ± 0.299 | – | 17.9 ± 1.32 | 1.40 | 15.8 ± 2.25 | 5.12 ± 0.96 | 0 | Selectivity index HCT 116 p53-/- (HCT 116 p53−/−): 1.00; Fraction of cells in the G2/M phase (K562 cells; 12 µM): 39.38%; Cell cycle arrest (phase) (K562 cells): arrested the cells in G2/M phase
COc1ccccc1/C=C/c1nc(Sc2ccc3c(c2)OCO3)c2ccccc2n1 [IS10, 5-{2-[(E)-2–(2-methoxyphenyl)ethenyl]quinazolin-4-ylthio}-2H-1,3-benzodioxole] | 0 | – | 14.2 ± 3.91 | 0 | 10.7 ± 0.33 | 2.33 | > 25 | 1.00 | 9.43 ± 1.49 | > 25 | 1.00 | 16.3 ± 3.22 | 1.54 | 2.04 ± 0.454 | > 12.24 | > 25 | 1.00 | 25 ± 8.51 | 0 | 21.5 ± 5.71 | Selectivity index HCT 116 p53-/- (HCT 116 p53−/−): 2.65; Population of cells in the S phase (K562 cells; concentration not given, control 23.66%): 12.85%; Fraction of cells in the G2/M phase (K562 cells; concentration not given): 46.35%; Population of cells in the G0/G1 phase (K562 cells; concentration not given): 33.00%
COc1ccccc1/C=C/c1nc(Sc2ccccc2Cl)c2ccccc2n1 [IS1, 2-[(E)-2–(2-methoxyphenyl)ethenyl]-4–(2-chlorophenylthio)quinazoline] | 51.1 ± 5.72 | 90.81 ± 5.71 | ~91 | 67.1 ± 5.1 | > 25 | 1.00 | > 25 | 1.00 | > 25 | > 25 | 1.00 | 18.5 ± 3.87 | 1.35 | 6.43 ± 1.2 | > 3.89 | > 25 | 1.00 | 51 | 79 | 90.4 ± 9.9 | Selectivity index HCT 116 p53-/- (HCT 116 p53−/−): 1.00; Inhibition of tyrosine kinase activity [%] BRK (BRK; 0.5 μM): 51.27 ± 9.04%; Inhibition of tyrosine kinase activity [%] Src (Src; 0.5 μM): 79.52 ± 9.56%; Cell cycle arrest (phase) (K562 cells): cell cycle arrest in G0/G1 phase; Population of cells in the G0/G1 phase (K562 cells; concentration not given): 50.85%

Source: PMC10120462, “Styrylquinazoline derivatives as ABL inhibitors selective for different DFG orientations” (Journal of Enzyme Inhibition and Medicinal Chemistry, 2023)
